According to US20240041042A1, “1-(PYRIDYL)-5-AZINYLPYRAZOLE DERIVATIVES, AND THEIR USE FOR CONTROL OF UNDESIRED PLANT GROWTH” (Bayer Aktiengesellschaft, priority 2020, published 2024):
Like-named read-outs stand apart in the source and are kept apart here. Each block holds one molecule with its values, some of them ahead of it.

How the values were obtained:
Format in all cases: in vivo
Setaria viridis (SETVI) [1] = assay: Pre-emergence herbicidal action against SETVI
How it was run: (§1)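 Dosages of 320 g/ha or less; pre-emergence; WP or EC in aqueous spray, 0.5% additive, 600 l/ha; greenhouse; visual % effect after ~3 wk relative to control pots.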

Viola tricolor (VIOTR) [2] = assay: Pre-emergence herbicidal action against VIOTR
How it was run: as §1

Zea mays (ZEAMX) [3] = details: for Post-emergence action against ZEAMX in %: crop plant compatibility, effect vs untreated controls
How it was run: (§2)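 Foliar application at the one-leaf stage: WP/EC formulation, 0.5% additive, 600 l/ha water. Greenhouse-grown in sandy loam. Endpoint is visual % injury relative to untreated controls at about 3 weeks.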

[4] = test system: Triticum aestivum (TRZAS); details: crop plant compatibility, effect vs untreated controls
How it was run: as §2

Oryza sativa (ORYSA) [5] = details: crop plant compatibility
How it was run: as §2

[6] = test system: Amaranthus retroflexus (AMARE); assay: Pre-emergence herbicidal action against AMARE; details: visual scoring after about 3 weeks vs untreated controls
How it was run: as §1

Zea mays (ZEAMX) [7] = details: crop plant compatibility; for Pre-emergence action against ZEAMX in %: in comparison to untreated controls
How it was run: (§3)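 Crop injury rated visually in percent against untreated plants roughly 3 weeks after treatment (0% no effect, 100% plants dead). Compounds, as WP or EC with 0.5% additive in 600 l/ha water, were applied to the covering soil right after sowing; greenhouse growth. Suffixes a, b, c denote different dosages.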

[8] = test system: Triticum aestivum (TRZAS); details: crop plant compatibility; for Pre-emergence action against TRZAS in %: in comparison to untreated controls
How it was run: as §3

Oryza sativa (ORYSA) [9] = details: crop plant compatibility; for Pre-emergence action against ORYSA in %: in comparison to untreated controls
How it was run: as §3

Brassica napus (BRSNW) = details: crop plant compatibility, in comparison to untreated controls
How it was run: as §3

[10] = test system: Alopecurus myosuroides (ALOMY); assay: Pre-emergence herbicidal action against ALOMY; details: scored visually after about 3 weeks, 100% = plants have died
How it was run: as §1

[11] = test system: Digitaria sanguinalis (DIGSA); assay: Pre-emergence herbicidal action against DIGSA
How it was run: as §1

[12] = test system: Amaranthus retroflexus (AMARE); assay: Post-emergence herbicidal action against AMARE; details: 320 g/ha, visual rating about 3 weeks after treatment
How it was run: (§4)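 Greenhouse plants sprayed at the one-leaf stage, 2–3 weeks after sowing, with WP or EC formulations plus 0.5% additive at 600 l/ha water. Activity rated visually after about 3 weeks versus untreated controls (100% = dead, 0% = like control), at 320 g/ha or lower.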

[13] = test system: Matricaria inodora (MATIN); assay: Pre-emergence herbicidal action against MATIN
How it was run: as §1

Setaria viridis (SETVI) [14] = assay: Post-emergence herbicidal action against SETVI
How it was run: as §4

[15] = test system: Echinochloa crus-galli (ECHCG); assay: Pre-emergence herbicidal action against ECHCG
How it was run: as §1

[16] = test system: Polygonum convolvulus (POLCO); assay: Pre-emergence herbicidal action against POLCO
How it was run: as §1

Avena fatua (AVEFA) = assay: Pre-emergence herbicidal action against AVEFA; details: 320 g/ha, visual scoring after about 3 weeks vs untreated controls
How it was run: as §1

[17] = test system: Alopecurus myosuroides (ALOMY); assay: Post-emergence herbicidal action against ALOMY; details: visual rating about 3 weeks after treatment vs untreated controls (100% = plants have died, 0% = like control plants)
How it was run: as §4

[18] = test system: Pharbitis purpurea (PHBPU); assay: Post-emergence herbicidal action against PHBPU
How it was run: as §4

[19] = test system: Verconica persica (VERPE); assay: Post-emergence herbicidal action against VERPE
How it was run: as §4

Viola tricolor (VIOTR) [20] = assay: Post-emergence herbicidal action against VIOTR
How it was run: as §4

[21] = test system: Verconica persica (VERPE); assay: Pre-emergence herbicidal action against VERPE; details: dosage 320 g/ha
How it was run: as §1

[22] = test system: Echinochloa crus-galli (ECHCG); assay: Post-emergence herbicidal action against ECHCG
How it was run: as §4

[23] = test system: Matricaria inodora (MATIN); assay: Post-emergence herbicidal action against MATIN; details: dosage 320 g/ha
How it was run: as §4

Lolium rigidum (LOLRI) [24] = assay: Pre-emergence herbicidal action against LOLRI
How it was run: as §1

[25] = test system: Pharbitis purpurea (PHBPU); assay: Pre-emergence herbicidal action against PHBPU; details: dosage 320 g/ha
How it was run: as §1

[26] = test system: Abutilon theophrasti (ABUTH); assay: Post-emergence herbicidal action against ABUTH; details: visual rating about 3 weeks after treatment vs untreated controls (100% = plants have died, 0% = like control plants)
How it was run: as §4

[27] = test system: Abutilon theophrasti (ABUTH); assay: Pre-emergence herbicidal action against ABUTH; details: 100% = plants have died
How it was run: as §1

Lolium rigidum (LOLRI) [28] = assay: Post-emergence herbicidal action against LOLRI; details: dosage 320 g/ha
How it was run: as §4

[29] = test system: Polygonum convolvulus (POLCO); assay: Post-emergence herbicidal action against POLCO; details: dosage 320 g/ha
How it was run: as §4

[30] = 20 g/ha, effect vs untreated controls
[31] = 80 g/ha, effect in comparison to untreated controls

Post-emergence action against ZEAMX in % (crop plant compatibility) (Zea mays (ZEAMX) [3]; 20 g/ha, ZEAMX, effect in comparison to untreated controls): 10%
Post-emergence action against ZEAMX in % (Zea mays (ZEAMX) [3]; 80 g/ha): 20%
Post-emergence action against TRZAS in % ([4]; 20 g/ha): 20%
Post-emergence action against ORYSA in % (Oryza sativa (ORYSA) [5]; [30]): 0%
Post-emergence action against ORYSA in % (Oryza sativa (ORYSA) [5]; [31]): 10%
Pre-emergence action against ZEAMX (Zea mays (ZEAMX) [7]; [30]): 10%
Pre-emergence action against TRZAS [8, 30]: 10%
Pre-emergence action against TRZAS in % ([8]; 80 g/ha): 20%
Pre-emergence action against ORYSA (Oryza sativa (ORYSA) [9]; [30]): 20%
Pre-emergence action against BRSNW in % (Brassica napus (BRSNW); 20 g/ha): 10%
Compound: COC(=O)COc1nn(-c2ncccc2F)c(-c2cncc(F)c2)c1Br [Example I-16]
Pre-emergence action against SETVI in % (Setaria viridis (SETVI) [1]; dosage 80 g/ha): 90%
Pre-emergence action against SETVI in % (Setaria viridis (SETVI) [1]; dosage 320 g/ha): 100%
Pre-emergence action against VIOTR in % (Viola tricolor (VIOTR) [2]; 320 g/ha, Viola tricolor): 100%
Pre-emergence action against VIOTR in % (Viola tricolor (VIOTR) [2]; dosage 80 g/ha): 100%
Pre-emergence action against AMARE in % ([6]; 80 g/ha): 100%
Pre-emergence action against AMARE in % ([6]; 320 g/ha): 100%
Pre-emergence action against ALOMY ([10]; 80 g/ha): 100%
Pre-emergence action against ALOMY ([10]; 320 g/ha): 100%
Pre-emergence action against DIGSA in % ([11]; 80 g/ha, visual scoring after about 3 weeks vs untreated controls): 100%
Pre-emergence action against DIGSA in % ([11]; dosage 320 g/ha): 100%
Post-emergence action against AMARE in % [12]: 80%
Pre-emergence action against MATIN in % ([13]; dosage 80 g/ha): 100%
Pre-emergence action against MATIN in % ([13]; dosage 320 g/ha): 100%
Post-emergence action against SETVI in % (Setaria viridis (SETVI) [14]; dosage 80 g/ha): 80%
Post-emergence action against SETVI in % (Setaria viridis (SETVI) [14]; dosage 320 g/ha): 80%
Pre-emergence action against ECHCG in % ([15]; dosage 80 g/ha): 90%
Pre-emergence action against ECHCG in % ([15]; dosage 320 g/ha): 90%
Pre-emergence action against POLCO in % ([16]; dosage 80 g/ha): 90%
Pre-emergence action against POLCO in % ([16]; dosage 320 g/ha): 90%
Pre-emergence action against AVEFA in % (Avena fatua (AVEFA)): 90%
Post-emergence action against ALOMY in % ([17]; 80 g/ha): 90%
Post-emergence action against ALOMY in % ([17]; 320 g/ha): 90%
Post-emergence action against PHBPU in % ([18]; dosage 80 g/ha): 90%
Post-emergence action against PHBPU in % ([18]; dosage 320 g/ha): 90%
Post-emergence action against VERPE in % ([19]; 320 g/ha, VERPE): 90%
Post-emergence action against VERPE in % ([19]; dosage 80 g/ha): 80%
Post-emergence action against VIOTR in % (Viola tricolor (VIOTR) [20]; 80 g/ha): 80%
Post-emergence action against VIOTR in % (Viola tricolor (VIOTR) [20]; 320 g/ha): 80%
Pre-emergence action against VERPE in % [21]: 90%
Post-emergence action against ECHCG in % ([22]; dosage 80 g/ha): 80%
Post-emergence action against ECHCG in % ([22]; dosage 320 g/ha): 80%
Post-emergence action against MATIN in % [23]: 80%
Pre-emergence action against LOLRI in % (Lolium rigidum (LOLRI) [24]; dosage 80 g/ha): 90%
Pre-emergence action against LOLRI in % (Lolium rigidum (LOLRI) [24]; dosage 320 g/ha): 100%
Pre-emergence action against PHBPU in % [25]: 80%

Post-emergence action against ZEAMX in % (Zea mays (ZEAMX) [3]; 80 g/ha): 0%
Post-emergence action against ZEAMX in % (Zea mays (ZEAMX) [3]; 320 g/ha): 0%
Post-emergence action against TRZAS in % ([4]; 80 g/ha): 0%
Post-emergence action against ORYSA in % (Oryza sativa (ORYSA) [5]; [31]): 0%
Post-emergence action against ORYSA in % (Oryza sativa (ORYSA) [5]; 320 g/ha, effect in comparison to untreated controls): 0%
Pre-emergence action against ZEAMX in % (Zea mays (ZEAMX) [7]; 80 g/ha): 0%
Pre-emergence action against ZEAMX in % (Zea mays (ZEAMX) [7]; 320 g/ha): 10%
Pre-emergence action against TRZAS in % ([8]; 80 g/ha): 0%
Pre-emergence action against TRZAS in % ([8]; 320 g/ha): 0%
Pre-emergence action against ORYSA in % (Oryza sativa (ORYSA) [9]; 80 g/ha): 0%
Pre-emergence action against ORYSA in % (Oryza sativa (ORYSA) [9]; 320 g/ha): 20%
Pre-emergence action against BRSNW in % (Brassica napus (BRSNW); 80 g/ha): 0%
Compound: CC(=O)CNC(=O)COc1nn(-c2ccnc(F)c2)c(-c2ccc(F)nc2)c1Br [III-07]
Post-emergence action against ABUTH in % ([26]; 320 g/ha): 80%
Pre-emergence action against ALOMY ([10]; 320 g/ha): 80%

Post-emergence action against ZEAMX in % (Zea mays (ZEAMX) [3]; 80 g/ha): 0%
Post-emergence action against ORYSA in % (Oryza sativa (ORYSA) [5]; [31]): 20%
Pre-emergence action against ZEAMX in % (Zea mays (ZEAMX) [7]; 80 g/ha): 0%
Pre-emergence action against ZEAMX in % (Zea mays (ZEAMX) [7]; 320 g/ha): 0%
Pre-emergence action against BRSNW in % (Brassica napus (BRSNW); 80 g/ha): 20%
Compound: CCOC(=O)COc1nn(-c2ncccc2C(F)(F)F)c(-c2ccc(F)nc2)c1Cl [Example I-325]
Pre-emergence action against ABUTH ([27]; 80 g/ha, scored visually after about 3 weeks vs untreated controls, 0% = like control plants): 90%
Pre-emergence action against ABUTH ([27]; Dosage column 320 g/ha (title prints 3200 g/ha), scored visually after about 3 weeks): 90%
Pre-emergence action against VIOTR in % (Viola tricolor (VIOTR) [2]; 320 g/ha, Viola tricolor): 100%
Pre-emergence action against VIOTR in % (Viola tricolor (VIOTR) [2]; dosage 80 g/ha): 90%
Post-emergence action against ABUTH in % ([26]; 80 g/ha): 80%
Post-emergence action against ABUTH in % ([26]; 320 g/ha): 90%
Pre-emergence action against AMARE in % ([6]; 80 g/ha): 100%
Pre-emergence action against AMARE in % ([6]; 320 g/ha): 100%
Post-emergence action against LOLRI in % (Lolium rigidum (LOLRI) [28]): 90%
Pre-emergence action against ALOMY ([10]; 320 g/ha): 100%
Post-emergence action against AMARE in % [12]: 80%
Pre-emergence action against MATIN in % ([13]; dosage 80 g/ha): 100%
Pre-emergence action against MATIN in % ([13]; dosage 320 g/ha): 100%
Post-emergence action against POLCO in % [29]: 80%
Pre-emergence action against POLCO in % ([16]; dosage 320 g/ha): 90%
Pre-emergence action against AVEFA in % (Avena fatua (AVEFA)): 100%
Post-emergence action against ALOMY in % ([17]; 80 g/ha): 80%
Post-emergence action against ALOMY in % ([17]; 320 g/ha): 100%
Post-emergence action against PHBPU in % ([18]; dosage 320 g/ha): 80%
Post-emergence action against VERPE in % ([19]; 320 g/ha, VERPE): 90%
Post-emergence action against VERPE in % ([19]; dosage 80 g/ha): 80%
Post-emergence action against VIOTR in % (Viola tricolor (VIOTR) [20]; 80 g/ha): 90%
Post-emergence action against VIOTR in % (Viola tricolor (VIOTR) [20]; 320 g/ha): 90%
Post-emergence action against ECHCG in % ([22]; dosage 80 g/ha): 90%
Post-emergence action against ECHCG in % ([22]; dosage 320 g/ha): 90%
Pre-emergence action against LOLRI in % (Lolium rigidum (LOLRI) [24]; dosage 320 g/ha): 100%
Pre-emergence action against PHBPU in % [25]: 80%
